Assay: Inhibition of bovine liver beta-glucosidase

## C[C@@H]1CNC[C@@H](O)[C@@H](O)[C@@H]1O
  IC50: 244 µM

From BindingDB's records for doi:10.1016/j.bmc.2010.09.053 (Umr Cnrs 7201, 2012)
